The source of these data is US20220226321A1, “INHIBITOR OF MNK FOR THE TREATMENT OF NEUROPATHIC PAIN” (Board of Regents, The University of Texas System, priority 2019, published 2022).

One data set concerns DRG. Put plainly: Western blot (immunoblot) of DRG tissue after paclitaxel or eFT508 in vivo. Conditions: Veh=100. The arrangement: species or system mouse.
Another data set relates to DLBCL cell lines. Conditions: cited from earlier work.
A further data set has as its system infralimbic cortex. Put plainly: axon initial segment (AIS) length in infralimbic cortex, immunohistochemistry. The data set is classed as in vivo, mouse. The following applies: 10 mg/kg p.o. daily for 7 days, male SNI mice. On the procedure:
Immunohistochemistry. All mice were perfused at 3 weeks post-surgery (the day after rule-shifting). Mice were deeply anesthetized with a mixture of ketamine (80 mg/kg) and xylazine (12 mg/kg; i.p.) and then transcardially perfused with 1× phosphate buffered saline (PBS; 4° C., pH 7.4) followed by 10% formalin in 0.1 M phosphate buffer (PB; 4° C., pH 7.4; 25 mL at a flow rate of […]) using a perfusion pump. Brains were dissected and transferred […] to a 30% sucrose in 0.1M PB. Once the brains sunk in sucrose, they were frozen in OCT over dry ice. Coronal sections (30 μm) were cut using a cryostat and a hole was placed in the left hemisphere to demarcate the left (ipsilateral) hemisphere. Free floating sections were then washed in 0.1M PB, and then incubated in blocking solution (10% Normal Goat Serum, 0.3% Triton-X 100 in 0.1M PB) for 1 hr at room temperature with gentle rocking/agitation. Sections were incubated in primary antibody (mouse-anti-AnkyrinG; UC Davis/NIH NeuroMab Facility, clone N106/36 RRID:AB_10673030; 2 μg/ml working concentration) diluted in blocking solution for 3 hrs at room temperature. […]
Image Analysis. […] For each image, 30 segments were analyzed in layers 2/3 and layers 5/6 of the ipsilateral and contralateral IL in CellSens (Olympus) using the polyline measure tool. […]

A further data set concerns DRG neurons. Nature of the data set: whole-cell patch recording of acutely dissociated DRG neurons. The data set is classed as cell-based, mouse. How it is done:
Acute dissociation of mouse DRG neurons. Thirty mice were deeply anesthetized with isoflurane and the bilateral C4-5, T3-5, and L4-5 ganglia were surgically exposed and removed. The ganglia were placed in a flask containing trypsin (6.25 μg/mL, Hyclone) and type IA collagenase (0.25 mg/mL, Sigma-Aldrich) in DMEM and shaken for 50 min in a heated (37° C.) bath. After the cells were washed and mechanically dispersed with a fire polished Pasteur pipette, they were plated on poly-L-lysine-coated glass sheets and held in culture dishes with DMEM (10% FBS) until use within 6 hours after plating.
Whole-cell patch recording of spontaneous and evoked action potential in acutely dissociated mice DRG neurons. A previously described protocol was used (Li et al., 2017) for current-clamp recording. The internal solution contained 135 mM K-gluconate, 5 mM KCl, 5 mM Mg-ATP, 0.5 mM Na2GTP, 5 mM HEPES, 2 mM MgCl2, 5 mM EGTA, and 0.5 mM CaCl2 adjusted to pH 7.4 with KOH and the bath ACSF solution. DRG neurons were held at 0 pA, and the action potential current threshold was evoked using a series of 300-ms depolarizing current injections in 10-pA steps from −50 pA. The current that induced the first action potential that was defined as 1× rheobase. Only neurons with a resting membrane potential of at least −40 mV, stable baseline recordings, and evoked spikes that overshot 0 mV were used for further experiments and analysis. The DRG neurons were then held at 0 pA to record spontaneous action potential for 5 min. The different times rheobase injections for 500 ms was applied to induce action potential spike-burst responses. Series resistance (Rs) was compensated to above 70% for the recorded DRG neurons. All recordings were made at room temperature.

For data set [1], the system named is cultured mouse DRG neurons. Nature of the data set: Western blot of cultured primary DRG neurons treated with eFT508. The data set is classed as cell-based.
[2] abbreviates: DRGs in vivo after eFT508 treatment.
Setting [3] is: DRG, day 10 after induction of CIPN.

Entries after “also recorded” stand apart in the source; their conditions may differ.

Consider `Cc1cc(Nc2cc(N)ncn2)c(=O)n2c1C(=O)NC21CCCCC1` [eFT508, Tomivosertib], for which, in the data set with DRG (setting [2]), the “RagA, immunoblot” value amounted to 67±6.02; the “p4EBP1, immunoblot” value is on record as 53.12±7.03; the “p-eIF4E, immunoblot” value is reported as 10±2.43. Further, in the data set on DLBCL cell lines (TMD8, OCI-Ly3 and HBL1 DLBCL cell lines), the “production of pro-inflammatory cytokines including TNFα, IL-6, IL-10 and CXCL10” value is “dose-dependent decreases”. In addition, the “decrease in TNFα mRNA half-life” value with DLBCL cell lines is 2 fold. Also, the anti-proliferative activity result with DLBCL cell lines (multiple DLBCL cell lines) was “anti-proliferative activity”. In addition, the “SNI-induced changes in AIS length” value with infralimbic cortex is recorded as “reversed”. Besides, in the data set on DRG neurons, the “spontaneous activity in DRG neurons from paclitaxel treated mice” value is “strongly suppressed; also recorded: decreases spontaneous activity” and the “toxicity to DRG neurons in vitro” value was “not toxic”. In addition, the “treatment time needed to reduce spontaneous activity in most neurons” value with DRG neurons (DRG neurons from paclitaxel treated mice) was “Approximately 20 min”. The RagA protein level result in data set [1] (1 μM for 1 hr) is reported as “decrease”. In data set [1] (0.1 and 1 μM, 1 hr), the “level of eIF4E phosphorylation” value is “significantly reduced” and the other signaling pathways result is on record as “without affecting other signaling pathways”. Moreover, the “reduction of eIF4E phosphorylation” value in data set [1] (cultured DRGs neurons) turned out to be 90%.

As for `CC(=O)O[C@H]1C(=O)[C@@]2(C)[C@H]([C@H](OC(=O)c3ccccc3)[C@]3(O)C[C@H](OC(=O)[C@H](O)[C@@H](NC(=O)c4ccccc4)c4ccccc4)C(C)=C1C3(C)C)[C@]1(OC(C)=O)CO[C@@H]1C[C@@H]2O` [paclitaxel], the “Esyt1 protein, immunoblot” value in the data set on DRG (DRG after CIPN induction) is recorded as 230±18.30. Moreover, in the data set on DRG (DRG after paclitaxel treatment), the “mTOR, immunoblot” value is on record as 195±25.27; the “p-4EBP1, immunoblot” value is recorded as 152±11.27; the “p-eIF4E, immunoblot” value was 158±10.57; the “p-mTOR, immunoblot” value worked out at 131±20.27. Further, the “RagA protein level, immunoblot” value with DRG (DRG of eIF4E^S209A mice, paclitaxel vs vehicle) turned out to be 75±8.46. Also, in the data set with DRG (setting [3]), the “S6, immunoblot” value is recorded as 133±24.54; the “p-Akt, immunoblot” value is 96.86±6.63; the “p-ERK1/2, immunoblot” value is 107±14.94; the “p-S6, immunoblot” value was found to be 134±24.47. Moreover, the “RagA protein level, immunoblot” value in the data set with DRG (DRGs after CIPN) turned out to be 181±15.35. Moreover, the “spontaneous activity and nociceptor excitability” value in the data set on DRG neurons (cervical, thoracic and lumbar DRGs, day 10, paclitaxel 4 mg/kg every other day i.p.) was “caused spontaneous activity and increased nociceptor excitability”.
